We go through 21 compounds from ChEMBL document CHEMBL1287809, “Ixorapeptide I and ixorapeptide II, bioactive peptides isolated from Ixora coccinea” (Bioorg Med Chem Lett, 2010).

The nature of assay [1]: Antiaggregatory activity in human platelets assessed as inhibition of collagen-induced platelet aggregation by aggregometry. In kind it is functional, cell-based.
Assay [2] can be described thus: Antiaggregatory activity in human platelets assessed as inhibition of thrombin-induced platelet aggregation by aggregometry. In kind it is functional, cell-based.
The nature of assay [3]: Antiinflammatory activity in human neutrophils assessed as inhibition of FMLP/CB-induced elastase release at 10 ug/ml. In kind it is functional. The settings on record: Neutrophil.
Assay [4] is described as follows: Antiinflammatory activity in human neutrophils assessed as inhibition of FMLP/CB-induced superoxide anion release at 10 ug/ml. In kind it is functional. The settings on record: Neutrophil.
Assay [5] can be described thus: Antiinflammatory activity in human neutrophils assessed as inhibition of FMLP/CB-induced elastase release. Type of assay: functional, cell-based, Neutrophil. The note with it: for IC50: Homo sapiens, Neutrophil.
A short description of assay [6]: Antiinflammatory activity in human neutrophils assessed as inhibition of FMLP/CB-induced superoxide anion release. In kind it is functional, cell-based. The note with it: Neutrophil.
The next assay has as its system MCF7. Put plainly: Cytotoxicity against human MCF7 cells by MTT assay. In kind it is functional, cell-based. Background: Tetrazolium dyes change colour on reduction, which living cells bring about.
The subject of a further assay is Ca9-22. Put plainly: Cytotoxicity against human Ca9-22 cells by MTT assay. In kind it is functional, cell-based.
A further assay concerns MDA-MB-231. Put plainly: Cytotoxicity against human MDA-MB-231 cells by MTT assay. Type of assay: functional, cell-based.
In another assay the test system is A549. Put plainly: Cytotoxicity against human A549 cells by MTT assay. Type of assay: functional, cell-based.
Assay [7] in a line: Cytotoxicity against human Hep3B cells by MTT assay. Type of assay: functional, cell-based, Hep 3B2.
The next assay concerns HepG2. In words: Cytotoxicity against human HepG2 cells by MTT assay. In kind it is functional, cell-based.
In another assay the test system is Neutrophil. In words: Ratio of compound IC50 to PMSF IC50 for antiinflammatory activity in human neutrophils assessed as inhibition of FMLP/CB-induced elastase release. Type of assay: functional.
Assay [8] can be described thus: Antiinflammatory activity in human Neutrophil assessed as inhibition of elastase release at 10 ug/ml. In kind it is functional, cell-based.
The nature of assay [9]: Antiinflammatory activity in human Neutrophil assessed as inhibition of superoxide anion release at 10 ug/ml. Type of assay: functional, cell-based.

Converted amounts (≈) assume the structure as drawn. Where a SMILES comes first, the peptide text is derived from it. The star is where a group is joined. Fmoc = O=C(OCC1c2ccccc2-c2ccccc21)* Bounds are passed on as bounds.

A word on the IC50: it is the point on the concentration scale where inhibition reaches its midpoint. In the case of `Oc1cc(O)c2c(c1)O[C@H](c1ccc(O)c(O)c1)[C@H](O)C2` [(-)-EPICATECHIN], the IC50 in [1] is 22.2 µg/mL (≈ 76.5 µM); in assay [2], more than 50 µg/mL.

One may read the inhibition as how much of the control response was suppressed. Take `C[C@@H]1O[C@@H](Oc2cc(O)c3c(=O)c(O[C@@H]4O[C@@H](C)[C@H](O)[C@@H](O)[C@H]4O)c(-c4ccc(O)cc4)oc3c2)[C@H](O)[C@H](O)[C@H]1O` [KAEMPFERITRIN]: the values for the inhibition at 10 µg/mL in assay [3] and in assay [4] were 12.5% and 8.27%, respectively.

With `COc1cc2ccc(=O)oc2cc1O` [SCOPOLETIN], the half-inhibitory concentration (IC50) in assay [1] is 41.7 µg/mL (≈ 217 µM); in assay [2] it was more than 50 µg/mL.

For the compound `CC(=O)Oc1ccccc1C(=O)O` [ASPIRIN], the figures for the IC50 in assay [1] and in assay [2] were 13.6 µg/mL (≈ 75.4 µM) and more than 50 µg/mL, respectively.

Take `C[C@H]1O[C@H](Oc2cc(O)c3c(=O)c(O)c(-c4ccc(O)cc4)oc3c2)[C@@H](O)[C@@H](O)[C@@H]1O`: the values for the IC50 in [1] and in assay [2] were 34.8 µg/mL (≈ 80.4 µM) and more than 50 µg/mL, respectively.

As to `O=S(=O)(F)Cc1ccccc1` [PHENYLMETHYLSULFONYLFLUORIDE], the IC50 in assay [5] stood at 19.9 µg/mL (≈ 114 µM).

Take `c1ccc2c(c1)[I+]c1ccccc1-2` [DIPHENYLENEIODONIUM]: in assay [6], the IC50 was 0.35 µg/mL.

For `CCCCCCCCCCCCCCCCCCCC(=O)OCC(O)CO` (centres undefined), in assay [3], the inhibition at 10 µg/mL came out at 41.8%. For the same compound, the 50% inhibitory concentration (IC50) in assay [6] was found to be 2.47 µg/mL (≈ 6.39 µM).

On to `Oc1cc(O)c2c(c1)O[C@H](c1ccc(O)c(O)c1)[C@@H](O)C2` [CIANIDANOL], for which the IC50 in assay [1] was 27.6 µg/mL (≈ 95.3 µM); in assay [2], more than 50 µg/mL.

As for `O=c1cc(-c2ccc(O)c(O)c2)oc2cc(O)cc(O)c12` [LUTEOLIN], the concentration for half-maximal inhibition (IC50) in assay [1] was 2.56 µg/mL (≈ 8.94 µM); in the assay on MCF7, 9.5 µg/mL (≈ 33.2 µM); in the assay on Ca9-22 it was 8.55 µg/mL (≈ 29.9 µM); with MDA-MB-231, 9.65 µg/mL (≈ 33.7 µM); in [2], more than 50 µg/mL; with A549, 10.2 µg/mL (≈ 35.7 µM). The values for the IC50 (in assay [7]; with HepG2) were 8.03 µg/mL (≈ 28.1 µM) and 7.36 µg/mL (≈ 25.7 µM), respectively.

In the case of `Oc1ccc([C@]23Oc4cc(O)cc(O)c4[C@H](c4c(cc(O)c5c4O[C@@H](c4ccc(O)c(O)c4)[C@@H](O)C5)O2)[C@H]3O)cc1`, the “inhibition (INH)” value in assay [5] was found to be 2.5%.

As to `C[C@@]1(CO)CCC[C@]2(C)[C@@H]1CC[C@]13C[C@H](CC[C@H]12)[C@@H](C(=O)O)C3`, the inhibition at 10 µg/mL in [3] turned out to be 15.6%; in [4] it was 31.8%.

For the compound `CC[C@H](C)[C@H](NC(=O)C(NC(=O)[C@H](Cc1ccccc1)N(C)C)C(C(C)C)n1ccc2ccccc21)C(=O)O` (some centres undefined) [IXORAPEPTIDE II], the “Ratio IC50” value in the assay with Neutrophil was 73. Moreover, the IC50 came out at 0.27 µg/mL (≈ 0.505 µM) in assay [5] and 0.21 µg/mL (≈ 0.393 µM) in assay [6].

For the compound `C=C(C)[C@@H]1CC[C@]2(C(=O)O)CC[C@]3(C)[C@H](CC[C@@H]4[C@@]5(C)CCC(=O)C(C)(C)[C@@H]5CC[C@]43C)[C@@H]12` [BETUNOLIC ACID], the IC50 in [8] was 128 µg/mL (≈ 281 µM); in assay [9], 16.8 µg/mL (≈ 36.9 µM); in [1] it was 44.7 µg/mL (≈ 98.3 µM); in the assay with MCF7, 19.3 µg/mL (≈ 42.5 µM); in the assay on Ca9-22 it was 14.5 µg/mL (≈ 31.8 µM); in the assay on MDA-MB-231 it was more than 20 µg/mL. Also, the IC50 in assay [2] was more than 50 µg/mL; with A549, 8.93 µg/mL (≈ 19.6 µM); in assay [7] it was 13.8 µg/mL (≈ 30.4 µM); in the assay with HepG2, 4.32 µg/mL (≈ 9.5 µM).

With `O=c1c(O)c(-c2ccc(O)cc2)oc2cc(O)cc(O)c12` [KAEMPFEROL], the 50% inhibitory concentration (IC50) is 3.55 µg/mL (≈ 12.4 µM) in assay [1]; more than 20 µg/mL in the assay with MCF7; more than 20 µg/mL with Ca9-22; more than 20 µg/mL in the assay on MDA-MB-231; more than 50 µg/mL in assay [2]; more than 20 µg/mL in the assay on A549. For the same compound, the 50% inhibitory concentration (IC50) in assay [7] is 17.7 µg/mL (≈ 62 µM); in the assay on HepG2, more than 20 µg/mL.

On to `C=C(C)[C@@H]1CC[C@]2(C)CC[C@]3(C)[C@H](CC[C@@H]4[C@@]5(C)CC[C@H](O)C(C)(C)[C@@H]5CC[C@]43C)[C@@H]12` [LUPEOL], for which the half-inhibitory concentration (IC50) in the assay with MCF7 is more than 20 µg/mL; with Ca9-22, 16.8 µg/mL (≈ 39.3 µM); with MDA-MB-231 it was more than 20 µg/mL; in the assay with A549 it was more than 20 µg/mL; in assay [7] it was 18.8 µg/mL (≈ 44.1 µM); in the assay with HepG2 it was 19.8 µg/mL (≈ 46.4 µM).

With `COC(=O)[C@H](Cc1ccccc1)NC(=O)[C@@H](NC(=O)OCC1c2ccccc2-c2ccccc21)C(C)C` [IXORAPEPTIDE I] (Fmoc-Val-Phe-OMe), the half-maximal inhibitory concentration (IC50) in assay [1] is 29.5 µg/mL (≈ 59 µM); with MCF7 it was more than 20 µg/mL; in the assay with Ca9-22, 20 µg/mL (≈ 40 µM); in the assay with MDA-MB-231, more than 20 µg/mL; in assay [2] it was 20.5 µg/mL (≈ 41 µM); in the assay on A549 it was more than 20 µg/mL. Further, the IC50 in assay [7] was 3.36 µg/mL (≈ 6.71 µM); in the assay with HepG2 it was more than 20 µg/mL.

Consider `CC1(C)CC[C@]2(C(=O)O)CC[C@]3(C)C(=CC[C@@H]4[C@@]5(C)CCC(=O)C(C)(C)[C@@H]5CC[C@]43C)[C@@H]2C1` [OLEANONIC ACID], for which the IC50 is more than 20 µg/mL with MCF7; 18 µg/mL (≈ 39.7 µM) in the assay on Ca9-22; more than 20 µg/mL in the assay on MDA-MB-231; more than 20 µg/mL in the assay on A549; more than 20 µg/mL in [7]; more than 20 µg/mL with HepG2.

As to `COc1cccc2c1C(=O)c1c(O)c3c(c(O)c1C2=O)C[C@@](O)(C(=O)CO)C[C@@H]3O[C@H]1C[C@H](N)[C@H](O)[C@H](C)O1` [DOXORUBICIN], the IC50 with Ca9-22 was found to be 14.5 µg/mL (≈ 26.6 µM); in the assay on MDA-MB-231 it was 1.32 µg/mL (≈ 2.43 µM); with A549 it was 0.63 µg/mL (≈ 1.16 µM); in assay [7] it was 0.42 µg/mL (≈ 0.773 µM); with HepG2, 0.23 µg/mL (≈ 0.423 µM).

On to `C[C@H]1[C@H](C)CC[C@]2(C(=O)O)CC[C@]3(C)C(=CC[C@@H]4[C@@]5(C)CC[C@H](O)C(C)(C)[C@@H]5CC[C@]43C)[C@H]12` [URSOLIC ACID], for which the IC50 is 34.5 µg/mL (≈ 75.6 µM) in assay [1], more than 50 µg/mL in assay [2], 0.31 µg/mL (≈ 0.679 µM) in [5] and 0.29 µg/mL (≈ 0.635 µM) in [6].

Take `CC(=O)OC[C@]1(C)CCC[C@]2(C)[C@@H]1CC[C@]13C[C@H](CC[C@H]12)[C@@H](C(=O)O)C3`: the inhibition at 10 µg/mL in assay [3] worked out at 44.7%. Moreover, the IC50 in assay [6] came out at 5.11 µg/mL (≈ 14.1 µM).
